Data set [1] in a line: in vitro. The note with it: African green monkey.
Data set [2] has as its system DENV-4 strain EDEN (SG/06K2270DK1/2005). The data set is described as follows: Tetravalent RT-qPCR assay Protocol A, serotype 4 EDEN. It is filed as cell-based. Particulars: Dengue virus, DENV4, 72 h; RT-qPCR serotype 4 EDEN, Vero cells, day 3. How it is done:
(§1) The antiviral activity of the compounds of the invention was tested against DENV-1 strain TC974#666 (NCPV), DENV-2 strain 16681, DENV-3 strain H87 (NCPV) and DENV-4 strains H241 (NCPV) and EDEN (SG/06K2270DK1/2005; GenBank accession number QG398256) in a RT-qPCR assay. Therefore, Vero cells were infected with either DENV-1, or -2, or -3, or -4 in the presence or absence of test compounds. At day 3 post-infection, the cells were lysed and cell lysates were used to prepare cDNA of both a viral target (the 3′UTR of DENV; Table 2) and a cellular reference gene (β-actin, Table 2). Subsequently, a duplex real time PCR was performed on a Lightcycler480 instrument. The generated Cp value is inversely proportional to the amount of RNA expression of these targets. Inhibition of DENV replication by a test compound results in a shift of Cp's for the 3′UTR gene. On the other hand, if a test compound is toxic to the cells, a similar effect on β-actin expression will be observed. The comparative ΔΔCp method is used to calculate EC50, which is based on the relative gene expression of the target gene (3′UTR) normalized with the cellular housekeeping gene (β-actin). In addition, CC50 values are determined based on the Cp values acquired for the housekeeping gene β-actin.
(§2) The culture medium consisted of minimal essential medium supplemented with 2% of heat-inactivated fetal calf serum, 0.04% gentamycin (50 mg/mL) and 2 mM of L-glutamine. Vero cells, obtained from ECACC, were suspended in culture medium and 75 μL/well was added in 96-well plates (10000 cells/well), which already contain the antiviral compounds. […] In addition, each plate contains wells which are assigned as virus controls (containing cells and virus in the absence of compound) and cell controls (containing cells in the absence of virus and compound). Once the cells were added in the plates, the plates were incubated in a fully humidified incubator (37° C., 5% CO2) until the next day. Dengue viruses serotype-1, 2, 3 and 4 were diluted in order to obtain a Cp of ˜22-24 in the assay. Therefore, 25 μL of virus suspension, was added to all the wells containing test compound and to the wells assigned as virus control. In parallel, 25 μL of culture medium was added to the cell controls. Next, the plates were incubated for 3 days in a fully humidified incubator (37° C., 5% CO2). After 3 days, the supernatant was removed from the wells and the cells were washed twice with ice-cold PBS (−100 μL). The cell pellets within the 96-well plates were stored at −80° C. for at least 1 day. Next, RNA was extracted using the Cells-to-CT™ lysis kit, according to the manufacturer's guideline (Life Technologies). The cell lysates can be stored at −80° C. or immediately used in the reverse transcription step.
(§3) In preparation of the reverse transcription step, mix A (table 3A) was prepared and 7.57 μL/well was dispensed in a 96-well plate. After addition of 5 μL of the cell lysates, a five minute denaturation step at 75° C. was performed (table 3B). Afterwards, 7.43 μL of mix B was added (table 3C) and the reverse transcription step was initiated (table 3D) to generate cDNA.
(§4) Finally, a RT-qPCR mix was prepared, mix C (table 4A), and 22.02 μL/well was dispensed in 96-well LightCycler qPCR plates to which 3 μL of cDNA was added and the qPCR was performed according to the conditions in table 4B on a LightCycler 480.
(§5) Using the LightCycler software and an in-house LIMS system, dose response curves for each compound were calculated and the half maximal effective concentration (EC50) and the half maximal cytotoxic concentration (CC50) were determined (Tables 5-8).

The test system of a further data set is DENV-2 strain 16681. The data set can be described thus: Tetravalent RT-qPCR assay Protocol A, serotype 2. It is filed as cell-based. The note with it: Dengue virus, DENV2, 72 h; RT-qPCR serotype 2 16681, Vero cells, day 3. How it is done:
as §1, §2, §3, §4, §5
Background: In qPCR the cycle at which signal appears reflects the starting amount.

In a further data set the test system is DENV-3 strain H87. The data set is described as follows: Tetravalent RT-qPCR assay Protocol A, serotype 3. It is filed as cell-based. The note with it: Dengue virus, DENV3, 72 h; RT-qPCR serotype 3 H87, Vero cells, day 3. As for the experimental part: as §1, §2, §3, §4, §5
Another data set concerns DENV-1 strain TC974#666. The data set is described as follows: Tetravalent RT-qPCR assay Protocol A, serotype 1. It is filed as cell-based. Particulars: Dengue virus, DENV1, 72 h; RT-qPCR serotype 1 TC974#666, Vero cells, day 3. As for the experimental part: as §1, §2, §3, §4, §5
Another data set concerns DENV-4 strain H241. The data set is described as follows: Tetravalent RT-qPCR assay Protocol A, serotype 4 H241. Format: cell-based. The note with it: Dengue virus, DENV4, 72 h; RT-qPCR serotype 4 H241, Vero cells, day 3. How it is done: as §1, §2, §3, §4, §5
Data set [3] relates to DENV-2 16681 strain labeled with eGFP. The data set can be described thus: DENV-2 antiviral assay (eGFP fluorescence read-out in Vero cells). It is filed as cell-based, Dengue virus. The note with it: DENV-2 16681 eGFP, MOI 0.5, 3 days. As for the experimental part: The antiviral activity of all the compounds of the invention was tested against the DENV-2 16681 strain which was labeled with enhanced green fluorescent protein (eGPF). The culture medium consists of minimal essential medium supplemented with 2% of heat-inactivated fetal calf serum, 0.04% gentamycin (50 mg/mL) and 2 mM of L-glutamine. Vero cells, obtained from ECACC, were suspended in culture medium and 25 μL was added to 384-well plates (2500 cells/well), which already contain the antiviral compounds. Typically, these plates contain a 5-fold serial dilution of 9 dilution steps of the test compound at 200 times the final concentration in 100% DMSO (200 nL). […] Finally, each plate contains wells which are assigned as virus controls (containing cells and virus in the absence of compound), cell controls (containing cells in the absence of virus and compound) and medium controls (containing medium in the absence of cells, virus and compounds). To the wells assigned as medium control, 25 μL of culture medium was added instead of Vero cells. Once the cells were added to the plates, the plates were incubated for 30 minutes at room temperature to allow the cells to distribute evenly within the wells. Next, the plates were incubated in a fully humidified incubator (37° C., 5% CO2) until the next day. Then, DENV-2 strain 16681, labeled with eGFP, was added at a multiplicity of infection (MOI) of 0.5. Therefore, 15 μL of virus suspension was added to all the wells containing test compound and to the wells assigned as virus control. In parallel, 15 μL of culture medium was added to the medium and cell controls. Next, the plates were incubated for 3 days in a fully humidified incubator (37° C., 5% CO2). At the day of the read out, the eGFP fluorescence was measured using an automated fluorescence microscope at 488 nm (blue laser). Using an in-house LIMS system, inhibition dose response curves for each compound were calculated and the half maximal effective concentration (EC50) was determined. Therefore, the percent inhibition (I) for every test concentration is calculated using the following formula: I=100*([…])/(SVC−SCC); ST, SCC and SVC are the amount of eGFP signal in the test compound, cell control and virus control wells, respectively. The EC50 represents the concentration of a compound at which the virus replication is inhibited with 50%, as measured by a 50% reduction of the eGFP fluorescent intensity compared to the virus control. The EC50 is calculated using linear interpolation (Table 1).

The nature of data set [4]: in vitro. Format: cell-based. The note with it: African green monkey, CC50. How it is done:
as §1, §2, §5

The next data set concerns Vero cells. The note with it: African green monkey.

pEC50: −log10 of the molar value. Some results are limits rather than exact numbers.

`COc1cc(NC(C(=O)c2c[nH]c3cc(F)ccc23)c2ccc(F)cc2OCCO)cc(S(C)(=O)=O)c1` (single isomer, unassigned) [Compound 1A, 1-(6-fluoro-1H-indol-3-yl)-2-(4-fluoro-2-(2-hydroxyethoxy)phenyl)-2-((3-methoxy-5-(methylsulfonyl)phenyl)amino)ethanone] showed a CC50 in the data set “in vitro [1]” of 8600 nM. Moreover, the pEC50 in data set [2] was 8.44; in the data set on DENV-2 strain 16681 it was 8.96; with DENV-3 strain H87 it was 7.17; with DENV-1 strain TC974#666 it was 8.07; with DENV-4 strain H241, 6.54; in data set [3], 9.11.
Compound `COc1cc(NC(C(=O)c2c[nH]c3cc(Cl)ccc23)c2ccc(F)cc2OCCO)cc(S(C)(=O)=O)c1` (single isomer, unassigned) [Compound 2A, 1-(6-chloro-1H-indol-3-yl)-2-(4-fluoro-2-(2-hydroxyethoxy)phenyl)-2-((3-methoxy-5-(methylsulfonyl)phenyl)amino)-ethanone] gave a CC50 at 3 days in the data set “in vitro [4]” of 4800 nM. In addition, the negative-log EC50 (pEC50) was 8.64 in [2]; 9.40 with DENV-2 strain 16681; 7.32 in the data set on DENV-3 strain H87; 8.55 in the data set on DENV-1 strain TC974#666; 6.77 in the data set with DENV-4 strain H241; 9.49 in data set [3]. In the data set with Vero cells, this compound had a CC50 of 4900 nM.
Consider `COc1cc(NC(C(=O)c2c[nH]c3c(C)c(F)ccc23)c2ccc(F)cc2OCCO)cc(S(C)(=O)=O)c1` (single isomer, unassigned) [Compound 3A, 2-(4-fluoro-2-(2-hydroxyethoxy)phenyl)-1-(6-fluoro-7-methyl-1H-indol-3-yl)-2-((3-methoxy-5-(methylsulfonyl)phenyl)amino)ethanone], for which the CC50 at 3 days in “in vitro [4]” is over 2500 nM. In addition, the negative logarithm of the EC50 (pEC50) in data set [2] is 8.29; with DENV-2 strain 16681 it was 9.37; in the data set on DENV-3 strain H87 it was 7.35; in the data set on DENV-1 strain TC974#666, 8.48; with DENV-4 strain H241, 6.72; in [3], 9.40. Moreover, the CC50 in the data set with Vero cells was found to be 4000 nM.
In “in vitro [4]”, `COc1cc(NC(C(=O)c2c[nH]c3c(C)c(Cl)ccc23)c2ccc(F)cc2OCCO)cc(S(C)(=O)=O)c1` (single isomer, unassigned) [Compound 4B, 1-(6-chloro-7-methyl-1H-indol-3-yl)-2-(4-fluoro-2-(2-hydroxyethoxy)phenyl)-2-((3-methoxy-5-(methylsulfonyl)phenyl)amino)ethanone] registered a CC50 at 3 days of over 2500 nM. In addition, the negative logarithm of the EC50 (pEC50) in data set [2] is 8.49; in the data set with DENV-2 strain 16681, 9.68; in the data set on DENV-3 strain H87, 7.26; in the data set with DENV-1 strain TC974#666, 8.48; with DENV-4 strain H241 it was 6.85; in data set [3], 9.70. Besides, the CC50 with Vero cells was 3800 nM.
In the case of `COc1cc(NC(C(=O)c2c[nH]c3cc(OC)c(C)cc23)c2ccc(F)cc2OCCO)cc(S(C)(=O)=O)c1` (single isomer, unassigned) [Compound 6A, 2-(4-fluoro-2-(2-hydroxyethoxy)phenyl)-2-((3-methoxy-5-(methylsulfonyl)phenyl)amino)-1-(6-methoxy-5-methyl-1H-indol-3-yl)ethanone], the negative logarithm of the EC50 (pEC50) in data set [2] was 8.47; in the data set on DENV-2 strain 16681 it was 9.08; in the data set on DENV-3 strain H87 it was 7.37; in the data set on DENV-1 strain TC974#666, 8.46; in the data set on DENV-4 strain H241 it was 6.96; in data set [3] it was 9.33. For the same compound, the CC50 with Vero cells was 5600 nM.
Regarding `COc1cc(NC(C(=O)c2c[nH]c3c(C)cc(Cl)cc23)c2ccc(F)cc2OCCO)cc(S(C)(=O)=O)c1` (single isomer, unassigned) [Compound 9A, 1-(5-chloro-7-methyl-1H-indol-3-yl)-2-(4-fluoro-2-(2-hydroxyethoxy)phenyl)-2-((3-methoxy-5-(methylsulfonyl)phenyl)amino)ethanone], the CC50 at 3 days in the data set “in vitro [4]” was over 2500 nM. For the same compound, the negative logarithm of the EC50 (pEC50) is 9.21 with DENV-2 strain 16681; 7.80 in the data set with DENV-3 strain H87; 8.85 in the data set with DENV-1 strain TC974#666; 6.96 with DENV-4 strain H241; 9.41 in data set [3]. The same compound yielded a CC50 with Vero cells of 3200 nM.
In turn, `COc1cc(NC(C(=O)c2c[nH]c3ccc(OC(F)(F)F)cc23)c2ccc(F)cc2OCCO)cc(S(C)(=O)=O)c1` (single isomer, unassigned) [Compound 10B, 2-(4-fluoro-2-(2-hydroxyethoxy)phenyl)-2-((3-methoxy-5-(methylsulfonyl)phenyl)amino)-1-(5-(trifluoromethoxy)-1H-indol-3-yl)ethanone] returned a CC50 at 3 days in the data set “in vitro [4]” of over 2500 nM. For the same compound, the pEC50 with DENV-2 strain 16681 was 10.24; in the data set with DENV-3 strain H87, 8.68; in the data set on DENV-1 strain TC974#666, 9.70; in the data set with DENV-4 strain H241 it was 7.92; in [3], 9.92. The compound also came in with a CC50 in the data set on Vero cells of 2600 nM.
As for `COc1cc(NC(C(=O)c2c[nH]c3c(C)cc(OC(F)(F)F)cc23)c2ccc(F)cc2OCCO)cc(S(C)(=O)=O)c1` (single isomer, unassigned) [Compound 12A, 2-(4-fluoro-2-(2-hydroxyethoxy)phenyl)-2-((3-methoxy-5-(methylsulfonyl)phenyl)amino)-1-(7-methyl-5-(trifluoromethoxy)-1H-indol-3-yl)ethanone], the CC50 at 3 days in “in vitro [4]” was over 1000 nM. In addition, the pEC50 in the data set on DENV-2 strain 16681 is 10.12; in the data set on DENV-3 strain H87 it was 8.49; with DENV-1 strain TC974#666 it was 9.70; with DENV-4 strain H241 it was 7.85; in [3], 10.00. For the same compound, in the data set with Vero cells, the CC50 turned out to be 2200 nM.

The term pEC50 denotes the EC50 on a negative log10 scale, so that one unit is a factor of ten.
